By solubility is commonly meant how much of the substance goes into solution per volume. Read a low solubility as a poorly soluble substance.

The text below walks through data of patent US8859550B2, “Heterocyclic inhibitors of histamine receptors for the treatment of disease” (Kalypsys, Inc., priority 2011, dated 2014).

Common to all, as to assay type: physicochemical
Data set [1] in a line: Gravimetric Vapor Sorption (GVS). The settings on record: 25° C. The procedure: GVS: GVS experiments were conducted on a SurfaceMeasurement Systems DVS-HT at 25° C. The instrument was operated in step mode and the relative humidity (RH) was increased in 10% RH increments from 40% RH to 90% RH, then decreased from 90% RH to 0% RH, then increased a second time from 0% RH to 90% RH, then decreased from 90% RH to 0% RH. An extra step at 75% RH was included in each cycle. The mass equilibrium criterion was set at 0.005% change in mass over time (dm/dt). A minimum step time of 10 minutes and a maximum step time of 240 minutes were specified.

Data set [2] in a line: Solid state form conversion on storage at ambient conditions. The settings on record: solid state, ambient conditions. An excerpt: Two crystal forms of Compound 1 Mesylate Salt were obtained from these experiments. Compound 1 Mesylate Salt, Form 1 is a monomesylate reversible monohydrate solid state form that was obtained from ten of the twelve crystallization experiments conducted. […] Compound 1 Mesylate Salt Form 2 was obtained by slow evaporation of gummy solids at ambient temperature in two of twelve screening experiments. Compound 1 Mesylate Salt Form 2 was obtained as a mixture of Form 1 and Form 2 in one of twelve crystallization experiments.
A Compound 1 Mesylate salt form screen was conducted involving about 160 crystallization experiments in 48 solvents and aqueous mixtures was performed conducted as previously described (vide supra). Compound 1 Mesylate Salt Form 1, the reversible monohydrate initially discovered in during the crystallization experiments cited above, was obtained from a variety of solvents and crystallization conditions, including 25 slurry-ripening, six cooling, 16 evaporative and four vapor diffusion experiments. […] Samples of Compound 1, Mesylate Salt Forms 2-5 converted to Compound 1 Mesylate Salt Form 1 in solid state within one week at ambient conditions.

Data set [3] can be described thus: Solubility in aqueous acetate buffer (80 mM). Particulars: aqueous acetate buffer (80 mM) at pH3.5-4.5.
The nature of data set [4]: Equilibrium solubility study. The settings on record: for solubility thermodynamic: thermodynamic from solid, read-out: Filtrate Concentration (equilibrium solubility). The protocol: Equilibrium solubility experiments were conducted for Compound 2 Monohydrochloride Form 1, Compound 2 Monomesylate Form 1 and Compound 2 Monocitrate Form 1 salts in water and pH-5 acetate buffer solution. The results of the equilibrium solubility study are summarized in Table 26 (where “a” indicates FTIR and PXRD spectra of both samples were distinctly different from the known forms of Compound 2 or Compound 2 Monocitrate salt Form 1).

Structures are written as SMILES. Where two headings read alike, the source gives them in different places.

For `CN1CCN(c2ncc(-c3cccs3)n3nnnc23)CC1.CS(=O)(=O)O` [Compound 1 Mesylate Salt Form 1, 8-(4-Methylpiperazin-1-yl)-5-(thiophen-2-yl)tetrazolo[1,5-a]pyrazine Mesylate Monohydrate], in data set [1], the “hygroscopicity (GVS)” value was “not hydroscopic”. For the same molecule, the “GVS loss of water” value in data set [1] (below 20% RH) was about 4.30%. The GVS water content in data set [1] (between 20-90% RH) is about 4.3%. In addition, the crystal form stability entry in data set [2] is “the most, and the only, stable crystal form”. For the same molecule, the “improvement in solubility over Compound 1” value in data set [3] is over 5 fold. In addition, the solubility thermodynamic in data set [4] (0.2 M acetate buffer, pH 5, aqueous buffer, 0.2M Acetate Buffer (pH5), final pH 4.17, residual solid Free Base) is 58.2 mg/mL; in data set [4] (water, pH 3.51, water, Water, final pH 3.51, Dissolved), over 100 mg/mL. For the same molecule, the “Filtrate Concentration (equilibrium solubility)” value in data set [4] (Water, final pH 3.51, Dissolved, Mesylate Monohydrate) is listed as over 100 mg/mL. This molecule also yielded a solubility in data set [4] (water, aqueous) of over 100 mg/mL.
